Data set [1] can be described thus: Oxidation stability on storage (QH residual rate by HPLC). In kind it is physicochemical. As to the method: The weight ratio of reduced coenzyme Q10 to total coenzyme Q10 (namely, reduced coenzyme Q10/(oxidized coenzyme Q10+reduced coenzyme Q10)) is defined as “QH ratio”. The QH ratio was determined by the following HPLC analysis. For the evaluation of oxidation stability, a rate of the change in the QH ratio at the end of the evaluation from that at the beginning of the evaluation was defined as “QH residual rate”, and the QH residual rate determined from the following expression was used as a measure of oxidation stability.
QH residual rate (%)=100×QH ratio at the end of the evaluation/QH ratio at the beginning of the evaluation
• Column: SYMMETRY C18 (manufactured by Waters); 250 mm (length), 4.6 mm (inner diameter) • Mobile phase: C2H5OH: CH3OH=4:3 (v:v) • Detection wavelength: 210 nm • Flow rate: 1 mL/min

Data set [2] in a line: Water activity measurement (AquaLab Series 4TE). In kind it is physicochemical. The conditions noted are these: water activity in packaged body with controlled internal relative humidity. The method, then:
The water activity was measured with AquaLab Series 4TE (METER Group Inc.). A sample having a volume of about 5 ml in a sample dish was placed in AquaLab Series 4TE, and the water activity at 25° C. was measured.

[3] abbreviates: stored 2 weeks at 40° C., 0.2 g in opened state in packaged body of controlled relative humidity (11% or 48%).

Regarding `COc1c(O)c(C)c(C/C=C(\C)CC/C=C(\C)CC/C=C(\C)CC/C=C(\C)CC/C=C(\C)CC/C=C(\C)CC/C=C(\C)CC/C=C(\C)CC/C=C(\C)CCC=C(C)C)c(O)c1OC` [Comparative Example 1, reduced coenzyme Q10], the “QH residual rate (%)” value in data set [1] (stored 4 weeks at 40° C. and relative humidity 75%, 0.2 g in sealed container, internal relative humidity 48%) stood at 82.1%. The molecule also came in with a Water activity in data set [2] of 0.48.

Regarding `COc1c(O)c(C)c(C/C=C(\C)CC/C=C(\C)CC/C=C(\C)CC/C=C(\C)CC/C=C(\C)CC/C=C(\C)CC/C=C(\C)CC/C=C(\C)CC/C=C(\C)CCC=C(C)C)c(O)c1OC` [Comparative Example 2, reduced coenzyme Q10], the “QH residual rate (%)” value in data set [1] (stored 2 weeks at 40° C. and relative humidity 75%, 0.2 g in sealed container, internal relative humidity 48%) amounted to 37.2%.

Consider “co-crystal composed of QH and nicotinamide [Comparative Example 3]”, for which the “QH residual rate (%)” value in data set [1] (setting [3]) stood at 82.6%. Besides, in data set [2], the Water activity is 0.48.

As to “co-crystal composed of QH and nicotinamide [Example 5]”, the “QH residual rate (%)” value in data set [1] (setting [3]) came to 94.7%. Moreover, the Water activity in data set [2] was found to be 0.11.

For the origin of these results see patent publication US20250059124A1, “METHOD FOR STORING REDUCED COENZYME Q10” (KANEKA CORPORATION, priority 2021, published 2025).
